Experimental data published in US12070594B2, “Biomedical electrode with anti-microbial properties” (Compass Health Brands Corp., priority 2018, dated 2024).

Columns and labels:
Format in all cases: cell-based
S. aureus ATCC 25923 = assay: Antibiotic susceptibility, reference microorganism
S. aureus ATCC 33592 = assay: Antibiotic Susceptibility of the Test Microorganisms
[1] = system: A. baumannii ATCC BAA-1605; assay: as above
P. aeruginosa ATCC 27853 = assay: Antibiotic susceptibility, reference microorganism
E. cloacae ATCC BAA-2468 = assay: Antibiotic Susceptibility of the Test Microorganisms
E. coli ATCC 25922 = assay: Antibiotic susceptibility, reference microorganism
E. faecalis ATCC 51575 = assay: Antibiotic Susceptibility of the Test Microorganisms
[2] = susceptibility ≥21 mm, resistance ≤17 mm (CLSI M100)

Row | SMILES | Reference Microorganism Diameter (S. aureus ATCC 25923) | Test Microorganism Demonstrates Resistance? (S. aureus ATCC 33592) | Test Microorganism Diameter (S. aureus ATCC 33592; susceptibility ≥13 mm, resistance ≤10 mm (CLSI M100)) | Test Microorganism Demonstrates Resistance? [1] | Test Microorganism Diameter [1, 2] | Reference Microorganism Diameter (P. aeruginosa ATCC 27853) | Test Microorganism Demonstrates Resistance? (E. cloacae ATCC BAA-2468) | Test Microorganism Diameter (E. cloacae ATCC BAA-2468; [2]) | Reference Microorganism Diameter (E. coli ATCC 25922) | Test Microorganism Demonstrates Resistance? (E. faecalis ATCC 51575) | Test Microorganism Diameter (E. faecalis ATCC 51575; susceptibility ≥17 mm, resistance ≤14 mm (CLSI M100))
1 | Cc1onc(-c2ccccc2)c1C(=O)N[C@@H]1C(=O)N2[C@@H]1SC(C)(C)[C@@H]2C(=O)O [Oxocillin] | 51.9 mm | Yes | 9.2 mm |  |  |  |  |  |  |  | 
2 | CCN1CCN(C(=O)N[C@@H](C(=O)N[C@@H]2C(=O)N3[C@@H]2SC(C)(C)[C@@H]3C(=O)O)c2ccccc2)C(=O)C1=O [Piperacillin] |  |  |  | Yes | 6.5 mm | 26.2 mm | Yes | 6.5 mm | 25.3 mm |  | 
3 | CN[C@H](CC(C)C)C(=O)N[C@H]1C(=O)N[C@@H](CC(N)=O)C(=O)N[C@H]2C(=O)N[C@H]3C(=O)N[C@H](C(=O)N[C@H](C(=O)O)c4cc(O)cc(O)c4-c4cc3ccc4O)[C@H](O)c3ccc(c(Cl)c3)Oc3cc2cc(c3O[C@@H]2O[C@H](CO)[C@@H](O)[C@H](O)[C@H]2O[C@H]2C[C@](C)(N)[C@H](O)[C@H](C)O2)Oc2ccc(cc2Cl)[C@H]1O [Vancomycin] | 21.2 mm |  |  |  |  |  |  |  |  | Yes | 11.3 mm
